# Measurements reported in patent US20250074897A1, “PYRIDAZINONES AS PARP7 INHIBITORS” (Ribon Therapeutics, Inc., priority 2019, published 2025).
# Target: T1, PARP7 (TIPARP) (Homo sapiens, UniProt Q7Z3E1)
# T1 sequence (Q7Z3E1 1-657): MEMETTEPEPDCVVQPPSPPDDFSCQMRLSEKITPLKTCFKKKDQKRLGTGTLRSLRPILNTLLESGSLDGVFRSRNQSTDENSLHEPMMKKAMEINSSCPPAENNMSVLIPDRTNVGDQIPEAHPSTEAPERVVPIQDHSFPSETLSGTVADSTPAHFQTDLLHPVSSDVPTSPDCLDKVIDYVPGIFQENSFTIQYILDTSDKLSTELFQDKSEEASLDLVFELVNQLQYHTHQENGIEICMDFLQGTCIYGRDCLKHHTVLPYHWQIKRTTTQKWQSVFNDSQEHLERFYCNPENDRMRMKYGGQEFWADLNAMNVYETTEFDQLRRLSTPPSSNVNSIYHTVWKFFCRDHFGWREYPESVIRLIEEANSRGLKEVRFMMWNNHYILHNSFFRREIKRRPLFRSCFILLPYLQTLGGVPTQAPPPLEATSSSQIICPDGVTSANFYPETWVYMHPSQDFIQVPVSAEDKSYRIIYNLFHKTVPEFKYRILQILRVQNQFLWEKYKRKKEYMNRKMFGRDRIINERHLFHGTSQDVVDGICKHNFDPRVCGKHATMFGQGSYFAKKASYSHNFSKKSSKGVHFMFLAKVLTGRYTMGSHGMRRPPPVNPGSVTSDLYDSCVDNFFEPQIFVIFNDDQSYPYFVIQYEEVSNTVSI
# Assay: Enzymatic assay for inhibition of PARP7: TR-FRET displacement of biotinylated Probe A from the TIPARP active site
# Format: binding
# Details: 6 nM TIPARP, 2 nM Probe A, 25° C., 30 min incubation with test compound
# Protocol: Enzymatic Assay for Inhibition of PARP7
# Displacement of Probe A, a biotinylated probe binding to the TIPARP active site, was measured using a time-resolved fluorescence energy transfer (TR-FRET) assay. 20 nL of a dose response curve of each test compound was spotted in black 384-well polystyrene proxiplates (Perkin Elmer) using a Mosquito (TTP Labtech). Reactions were performed in a 8 μL volume by adding 6 μL of TIPARP and Probe A in assay buffer (20 mM HEPES pH=8, 100 mM NaCl, 0.1% bovine serum albumin, 2 mM DTT and 0.002% Tween20), incubating with test compound at 25° C. for 30 min, then adding 2 μL of ULight-anti 6xHis and LANCE Eu-W1024 labeled streptavidin (Perkin Elmer). The final concentrations of TIPARP and Probe A were 6 nM and 2 nM, respectively. The final concentration of ULight-anti 6xHis and LANCE Eu-W1024 labeled streptavidin were 4 nM and 0.25 nM, respectively. Reactions were incubated at 25° C. for an additional 30 min, then read on an Envision platereader equipped with a LANCE/DELFIA top mirror (Perkin Elmer) using excitation of 320 nm and emission of 615 nm and […] with a 90 μs delay. The ratio of the 665/615 nm emission were calculated for each well to determine the amount of complex of TIPARP and Probe A in each well. Control wells containing a negative control of 0.25% DMSO vehicle or a positive control of 100 μM 5-(5-(piperidin-4-yloxy)isoindolin-2-yl)-4-(trifluoromethyl)pyridazin-3(2H)-one were used to calculate the % inhibition as described below:
# where TRFempd is the TR-FRET ratio from the compound treated well, TRFmin is the TR-FRET ratio from the 5-(5-(piperidin-4-yloxy)isoindolin-2-yl)-4-(trifluoromethyl)pyridazin-3(2H)-one-treated positive control well and TRFmax is the TR-FRET ratio from the DMSO-treated negative control well.
# The % inhibition values were plotted as a function of compound concentration and the following 4-parameter fit was applied to derive the IC50 values:
# where top and bottom are normally allowed to float, but may be fixed at 100 or 0 respectively in a 3-parameter fit. The Hill Coefficient is normally allowed to float but may also be fixed at 1 in a 3-parameter fit. Y is the % inhibition and X is the compound concentration.
row,IC50,Compound
1,< 100 nM,"O=C([C@H](O)COC[C@H](COC(F)(F)F)Nc1cn[nH]c(=O)c1C(F)(F)F)N1CCN(c2ncc(C(F)(F)F)cn2)CC1 [Example 16A, 5-(((R)-1-((R)-2-hydroxy-3-oxo-3-(4-(5-(trifluoromethyl)pyrimidin-2-yl)piperazin-1-yl)propoxy)-3-(trifluoromethoxy)propan-2-yl)amino)-4-(trifluoromethyl)pyridazin-3(2H)-one]"
2,< 100 nM,"O=C([C@@H](O)COC[C@H](COC(F)(F)F)Nc1cn[nH]c(=O)c1C(F)(F)F)N1CCN(c2ncc(C(F)(F)F)cn2)CC1 [Example 16B, 5-(((R)-1-((S)-2-hydroxy-3-oxo-3-(4-(5-(trifluoromethyl)pyrimidin-2-yl)piperazin-1-yl)propoxy)-3-(trifluoromethoxy)propan-2-yl)amino)-4-(trifluoromethyl)pyridazin-3(2H)-one]"

# The next lines start with the molecule.
row,Compound,IC50
1,"COC[C@@H](COCC(O)C(=O)N1CCN(c2ncc(C(F)(F)F)cn2)CC1)Nc1cn[nH]c(=O)c1C(F)(F)F (stereo partly drawn) [Example 14, 5-(((2S)-1-(2-hydroxy-3-oxo-3-(4-(5-(trifluoromethyl)pyrimidin-2-yl)piperazin-1-yl)propoxy)-3-methoxypropan-2-yl)amino)-4-(trifluoromethyl)pyridazin-3(2H)-one]",< 100 nM
2,"CC[C@@H](COCC(O)C(=O)N1CCN(c2ncc(C(F)(F)F)cn2)CC1)Nc1cn[nH]c(=O)c1C(F)(F)F (stereo partly drawn) [Example 15, 5-(((2S)-1-(2-hydroxy-3-oxo-3-(4-(5-(trifluoromethyl)pyrimidin-2-yl)piperazin-1-yl)propoxy)butan-2-yl)amino)-4-(trifluoromethyl)pyridazin-3(2H)-one]",< 100 nM
3,"O=C(C(O)COC[C@@H]1CCN1c1cn[nH]c(=O)c1C(F)(F)F)N1CCN(c2ncc(C(F)(F)F)cn2)CC1 (stereo partly drawn) [Example 18, 5-((2S)-2-((2-hydroxy-3-oxo-3-(4-(5-(trifluoromethyl)pyrimidin-2-yl)piperazin-1-yl)propoxy)methyl)azetidin-1-yl)-4-(trifluoromethyl)pyridazin-3(2H)-one]",< 100 nM
